Measurements taken from patent publication US20100197591A1, “4-AMINO-7,8-DIHYDROPYRIDO[4,3-d]PYRIMIDIN-5(6H)-ONE DERIVATIVES” (pfizer Inc, priority 2009, published 2010).

How the values were obtained:
Assay type in all cases: biochemical
[1] = target: T1, Human full-length diacylglycerol:acylCoA acyltransferase 1 (DGAT-1) (Homo sapiens, UniProt O75907); test: DGAT-1 Reduced Microsome Multidose Assay, G7329F Human IC50; conditions: crude membrane fraction of Sf9 cells expressing human DGAT-1; [14C]decanoylCoA; apparent IC50, average where tested more than once
T1 construct: Human full-length diacylglycerol:acylCoA acyltransferase 1 (DGAT-1) was expressed in Sf9 insect cells; made in house; host or cells: Sf9 insect cells (baculovirus); crude membrane/microsome fraction
T1 sequence (O75907 1-488): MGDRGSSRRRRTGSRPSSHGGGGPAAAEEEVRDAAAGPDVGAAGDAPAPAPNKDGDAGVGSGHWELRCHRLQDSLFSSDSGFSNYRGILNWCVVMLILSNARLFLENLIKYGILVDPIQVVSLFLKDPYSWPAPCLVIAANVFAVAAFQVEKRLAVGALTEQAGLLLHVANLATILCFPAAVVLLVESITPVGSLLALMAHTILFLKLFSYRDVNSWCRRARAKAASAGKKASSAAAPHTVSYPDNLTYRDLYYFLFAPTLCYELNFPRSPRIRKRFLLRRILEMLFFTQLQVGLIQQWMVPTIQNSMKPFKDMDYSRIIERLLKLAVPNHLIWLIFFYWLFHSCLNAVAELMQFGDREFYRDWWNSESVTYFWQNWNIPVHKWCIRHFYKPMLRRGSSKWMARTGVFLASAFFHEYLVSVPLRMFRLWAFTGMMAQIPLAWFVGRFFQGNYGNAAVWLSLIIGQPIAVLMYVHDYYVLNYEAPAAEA
In short: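 Sf9-expressed full-length DGAT-1 microsomes (25 or 5 μg/mL) with incorporated 1,2-dioleoyl-sn-glycerol (75 μM), pH 7.5 Hepes, 20 μM [14C]decanoylCoA, 2.5% DMSO, inhibitor pre-incubated. Eight (3 nM–10 μM) or eleven concentrations; 14C product by scintillation gives apparent IC50, averaged over repeats.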

[2] = target: T1, Human full-length diacylglycerol:acylCoA acyltransferase 1 (DGAT-1); test: DGAT-1 Reduced Microsome Multidose Assay, G7829E Human IC50; conditions: crude membrane fraction of Sf9 cells expressing human DGAT-1; [14C]decanoylCoA; terminated with 5 μl of 1.4% phosphoric acid instead of HCl; average where tested more than once
Experimental: (§1) Human full-length diacylglycerol:acylCoA acyltransferase 1 (DGAT-1) was expressed in Sf9 insect cells which are then lysed and a crude membrane fraction (105,000×g pellet) was prepared. The DGAT-1 gene is a human DGAT-1 gene described in J Biol Chem 273:26765 (1998) and U.S. Pat. No. 6,100,077.
(§2) In vitro inhibition of DGAT-1 was measured using a modification, further described below, of the assay methodology described in U.S. Pat. No. 6,994,956 B2.
(§3) The cells were cultured as follows. Sf9 cells (20 L) were infected with 4 mL of DGAT-1 Baculovirus Infected Insect Cells (BIIC) for 72 hours in a Wave Bioreactor System 20/50P (Wave Biotec/GE Healthcare).
(§4) Crude DGAT-1 microsomes were prepared as follows. Cell pellets were washed once with ice-cold Dulbecco's phosphate-buffered saline. Cells were collected in tabletop centrifuge (Beckman GS-6KR), 15 minutes, 2000×g, 4° C. Twenty (20) mL of ice-cold Microsome Buffer (MB) was added per 5 g of cell pellet. The suspension was passed through a microfluidizer 3 times (18K psi). The lysate was transferred to centrifuge tubes and centrifuged for 20 minutes at 5000×g (Beckman-Coulter, Inc. Allegra® 64R High-Speed Refrigerated Benchtop Centrifuge, F0650 rotor) at 4° C. The supernatant was transferred to ultracentrifuge tubes and centrifuged at 125,000×g for 1 hour in a Beckman Ti-45 rotor, 4° C. The supernatant fluid was discarded. The pellet was resuspended in 70 mL of MB by sonication. The microsome concentration was determined using Bio-Rad Protein DC Protein Assay. The microsomes were filter sterilized with a 0.22 μm filter. The samples were portioned, flash frozen and stored at −80° C.
(§5) The Microsome Buffer, used for microsome preparation, was prepared by conventional means and contained 125 mM sucrose, 3 mM imidazole, 0.2 μg/mL aprotinin, 0.2 μg/mL leupeptin and 5 mM dithiothreitol (Cleland's reagent), DGAT-1 activity was measured in 384-well format in a total assay volume of 25 μl that contained, Hepes buffer (50 mM, pH 7.5), MgCl2 (10 mM), bovine serum albumin (0.6 mg/ml), [^14C]decanoylCoA (20 μM, 58 Ci/mol) and membranes (25 μg/ml) into which 1,2 dioleoyl-sn-glycerol (75 μM) in acetone has already been incorporated. Inhibitors in DMSO were pre-incubated with membranes before initiating the DGAT-1 reaction by the addition of decanoylCoA. […] The DMSO concentration was 2.5%. The inhibitors were present at a range of eight concentrations to generate an apparent IC50 for each compound. The eight inhibitor concentration employed ranged from 10 μM to 3 nM (from high to low concentration). Specifically, the eight concentrations used were 10 μM, 3 μM, 1 μM, 300 nM, 100 nM, 30 nM, 10 nM and 3 nM.
(§6) Reaction mixtures were neutralized by the addition of 15 μl of tris(hydroxy-methyl)aminomethane (1M, pH 8.0) and then mixed by trituration with 37.5 μl of Microscint™-E (Perkin Elmer). Plates contents were allowed to partition for 15 to 30 min before ^14C was measured in a scintillation spectrometer (Wallac Microbeta Trilux 1450-030 liquid scintillation counter 12 detector in the top-count DPM mode). Percent inhibition of test compounds was computed as 100-((DPM DMSO uninhibited-DPM test compound)/(DPM DMSO uninhibited)).
Four separate assays were performed using 4 different methods of analysis. The method of analysis of Assay 1 was the same as Assay 4 (described above) except microsomes were utilized at 25 μg/mL instead of 5 μg/mL. The method of analysis of Assay 2 was the same as Assay 4 (described above) except eleven (11) concentrations of inhibitor were employed instead of eight (8). The method of analysis of Assay 3 was the same as Assay 2 except the compounds were serially diluted in a different laboratory.
Where this DGAT-1 inhibition assay was performed on a compound more than once, an average is provided for that compound.

[3] = target: T1, Human full-length diacylglycerol:acylCoA acyltransferase 1 (DGAT-1); test: DGAT-1 Reduced Microsome Multidose Assay, G7329E Human IC50; conditions: crude membrane fraction of Sf9 cells expressing human DGAT-1; [14C]decanoylCoA; apparent IC50, average where tested more than once
Experimental: as §1, §2, §3, §4, §5, §6
Four separate assays were performed using 4 different methods of analysis. The method of analysis of Assay 1 was the same as Assay 4 (described above) except microsomes were utilized at 25 μg/mL instead of 5 μg/mL. […]

[4] = target: T1, Human full-length diacylglycerol:acylCoA acyltransferase 1 (DGAT-1); test: DGAT-1 Reduced Microsome Multidose Assay, G7329B Human IC50; conditions: crude membrane fraction of Sf9 cells expressing human DGAT-1; [14C]decanoylCoA; apparent IC50, average where tested more than once
Experimental: as §1, §2, §3
Crude DGAT-1 microsomes were prepared as follows. Cell pellets were washed once with ice-cold Dulbecco's phosphate-buffered saline. Cells were collected in tabletop centrifuge (Beckman GS-6KR), 15 minutes, 2000×g, 4° C. Twenty (20) mL of ice-cold Microsome Buffer (MB) was added per 5 g of cell pellet. The suspension was passed through a microfluidizer 3 times (18K psi). […] The microsome concentration was determined using Bio-Rad Protein DC Protein Assay. […]
The Microsome Buffer, used for microsome preparation, was prepared by conventional means and contained 125 mM sucrose, 3 mM imidazole, 0.2 μg/mL aprotinin, 0.2 μg/mL leupeptin and 5 mM dithiothreitol (Cleland's reagent), DGAT-1 activity was measured in 384-well format in a total assay volume of 25 μl that contained, Hepes buffer (50 mM, pH 7.5), MgCl2 (10 mM), bovine serum albumin (0.6 mg/ml), [^14C]decanoylCoA (20 μM, 58 Ci/mol) and membranes (25 μg/ml) into which 1,2 dioleoyl-sn-glycerol (75 μM) in acetone has already been incorporated. […]
as §6, with “Percent inhibition of test compounds was computed as 100-((DPM DMSO uninhibited-DPM test compound)/(DPM DMSO uninhibited)).” left out

Row | Structure (SMILES) | IC50 [1] [nM] | IC50 [2] [nM] | IC50 [3] [nM] | IC50 [4] [nM]
1 | COc1nc(N)c2c(n1)CCN(c1ccc(C(C)(C)c3ncno3)cc1)C2=O (single isomer, unassigned) [Example 3L] | 68.9 | 67.3 |  | 
2 | COc1nc(N)c2c(n1)CCN(c1ccc(C(C)(C)c3ncon3)cc1)C2=O (single isomer, unassigned) [Example 3M, 4-amino-2-methoxy-6-{4-[1-methyl-1-(1,2,4-oxadiazol-3-yl)ethyl]phenyl}-7,8-dihydropyrido[4,3-d]pyrimidin-5(6H)-one] | 77.8 | 55.2 |  | 
3 | COc1nc(N)c2c(n1)CCN(c1ccc(C(=O)OCC(C)(C)C)cc1)C2=O [Example 2F, 2,2-dimethylpropyl 4-(4-amino-2-methoxy-5-oxo-7,8-dihydropyrido[4,3-d]pyrimidin-6(5H)-yl)benzoate] | 112 | 55.1 |  | 
4 | COc1nc(N)c2c(n1)CCN(c1ccc(C(C)(C)c3nnn(C)n3)cc1)C2=O [Example 3R, 4-amino-2-methoxy-6-{4-[1-methyl-1-(2-methyl-2H-tetrazol-5-yl)ethyl]phenyl}-7,8-dihydropyrido[4,3-d]pyrimidin-5(6H)-one] |  | 21.1 |  | 
5 | COc1nc(N)c2c(n1)CCN(c1ccc(C(C)(C)CNC(=O)OC(C)(C)C)cc1)C2=O [Example 3T, tert-butyl {2-[4-(4-amino-2-methoxy-5-oxo-7,8-dihydropyrido[4,3-d]pyrimidin-6(5H)-yl)phenyl]-2-methylpropyl}carbamate] |  | 19.6 |  | 
6 | COc1nc(N)c2c(n1)CCN(c1ccc(C3(C#N)CCC3)cc1)C2=O [Example 4A, 1-[4-(4-amino-2-methoxy-5-oxo-7,8-dihydropyrido[4,3-d]pyrimidin-6(5H)-yl)phenyl]cyclobutanecarbonitrile] |  | 20.7 |  | 
7 | COc1nc(N)c2c(n1)CCN(c1ccc(C3(C(N)=O)CCC3)cc1)C2=O [Example 5A, 1-[4-(4-amino-2-methoxy-5-oxo-7,8-dihydropyrido[4,3-d]pyrimidin-6(5H)-yl)phenyl]cyclobutanecarboxamide] |  | 78.6 |  | 
8 | COc1nc(N)c2c(n1)CCN(c1ccc(C3(C(N)=O)CCCCC3)cc1)C2=O [Example 5B, 1-[4-(4-amino-2-methoxy-5-oxo-7,8-dihydropyrido[4,3-d]pyrimidin-6(5H)-yl)phenyl]cyclohexanecarboxamide] |  | 184 |  | 
9 | COc1nc(N)c2c(n1)CCN(c1ccc(C3(C(N)=O)CCCC3)cc1)C2=O [Example 5C, 1-[4-(4-amino-2-methoxy-5-oxo-7,8-dihydropyrido[4,3-d]pyrimidin-6(5H)-yl)phenyl]cyclopentanecarboxamide] |  | 217 |  | 
10 | COc1nc(N)c2c(n1)CCN(c1ccc(C(C)(C)C)cc1)C2=O [Example 6A, 4-amino-6-(4-tert-butylphenyl)-2-methoxy-7,8-dihydropyrido[4,3-d]pyrimidin-5(6H)-one] | 8.88 |  | 49 | 
11 | COc1nc(N)c2c(n1)CCN(c1ccc(C(C)C)cc1)C2=O [Example 6E, 4-amino-6-(4-isopropylphenyl)-2-methoxy-7,8-dihydropyrido[4,3-d]pyrimidin-5(6-H)-one] | 17.1 |  | 58.5 | 

Other lines, results leading:

Row | IC50 [1] [nM] | IC50 [2] [nM] | IC50 [3] [nM] | IC50 [4] [nM] | Structure (SMILES)
12 | 32.5 |  | 133 |  | COc1nc(N)c2c(n1)CCN(c1ccc([C@H]3CC[C@H](CC#N)CC3)cc1)C2=O [Example 7C, {trans-4-[4-(4-amino-2-methoxy-5-oxo-7,8-dihydropyrido[4,3-d]pyrimidin-6(5H)-yl)phenyl]cyclohexyl}acetonitrile]
13 |  |  | 124 |  | COc1nc(N)c2c(n1)CCN(c1ccc(I)cc1)C2=O [Example 9E, 4-amino-6-(4-iodophenyl)-2-methoxy-7,8-dihydropyrido[4,3-d]pyrimidin-5(6H)-one]
14 |  | 1380 |  |  | COc1nc(N)c2c(n1)CCN(c1ccc3c(c1)CC(C)(C)O3)C2=O [Example 9M, 4-amino-6-(2,2-dimethyl-2,3-dihydro-1-benzofuran-5-yl)-2-methoxy-7,8-dihydropyrido[4,3-d]pyrimidin-5(6H)-one]
15 |  |  | 13700 | 5030 | Cc1nc(N)c2c(n1)CCN(c1ccc(I)cc1)C2=O [Example 9Q, 4-amino-6-(4-iodophenyl)-2-methyl-7,8-dihydropyrido[4,3-d]pyrimidin-5(6H)-one]
16 |  |  |  | 1030 | Cc1nc(N)c2c(n1)CCN(c1ccc(C3CCC(CCO)CC3)cc1)C2=O (stereo not drawn) [Example 9R, 4-amino-6-{4-[4-(2-hydroxyethyl)cyclohexyl]phenyl}-2-methyl-7,8-dihydropyrido[4,3-d]pyrimidin-5(6H)-one]
17 |  |  |  | 1890 | Cc1nc(N)c2c(n1)CCN(c1ccc(C3CCC(CC#N)CC3)cc1)C2=O (stereo not drawn) [Example 9T, {4-[4-(4-amino-2-methyl-5-oxo-7,8-dihydropyrido[4,3-d]pyrimidin-6(5H)-yl)phenyl]cyclohexyl}acetonitrile]
